≈ marks a conversion by molar mass, not a printed value.
system: Candida albicans; assay: In vitro antifungal activity test (MIC), Candida albicans; format: cell-based; conditions: Candida albicans; concentration at which growth is inhibited by 80% vs negative control; 35° C., 24 hours, RPMI 1640, alama blue
Experimental: The antifungal activities of the compounds of the present invention were evaluated using Candida albicans as yeast fungus, and Aspergillus fumigatus as a filamentous fungus. The above fungi used were all purchased from American Type Culture Collection (ATCC). The strains used in the experiment were inoculated into a Sabouraud dextrose agar medium, and then cultured at 35° C. for a sufficient period of time, e.g., 24 hours for Candida albicans, and about 7 days for Aspergillus fumigatus. As for Candida albicans, about 5 to 7 single colonies were taken from the cultured medium, sufficiently suspended in 1 ml of 0.85% sterile saline solution, and adjusted to have an optical density of 0.095 to 0.107 at 530 nm. A preparation of a strain diluent was diluted in Roswell park memorial institute (RPMI) 1640 medium at a 1:10 ratio, and the resultant was diluted again at a 1:100 ratio to obtain an inoculation preparation for Candida albicans with a concentration of 1.0×10^3 to 5.0×10^3 CFU/mL. As for Aspergillus fumigatus, the cultured Sabouraud dextrose agar was added with 1 mL of 0.2% Tween 20 diluted with 0.85% sterile saline solution, and then the plate was shaken to detach conidium from the plate. The solution collected from the plate surface was transferred into a sterile tube, and placed at room temperature for 5 minutes to deposit heavy substances. The resulting supernatant was transferred into the sterile tube, sufficiently suspended for about 15 seconds, and prepared a strain diluent with a concentration of 0.4×10^6 to 5.0×10^6 CFU/mL using a hemocytometer. The thus prepared strain diluent was diluted in RPMI 1640 medium at a 1:100 ratio to obtain an inoculation preparation for Aspergillus fumigatus. Candida albicans was cultured at 35° C. for 24 hours and Aspergillus fumigatus was cultured at 35° C. for 48 hours, and the concentrations, at which growth is inhibited by 80% or 50% compared to a negative control group, were determined using alama blue color developing reagent. All experiments were repeated twice for each concentration, and the results of antifungal activities (MIC80 MIC50 μg/mL) are shown in Tables 1 to 2.

MIC80 [mg/L] | Compound
0.1 (≈ 0.383 µM) | Cn1cc(C(=O)NNc2ccc(F)cc2)ccc1=O [Example 3, N′-(4-fluorophenyl)-1-methyl-6-oxo-1,6-dihydropyridine-3-carbohydrazide]
0.11 (≈ 0.396 µM) | Cn1cc(C(=O)NNc2cccc(Cl)c2)ccc1=O [Example 4, N′-(3-chlorophenyl)-1-methyl-6-oxo-1,6-dihydropyridine-3-carbohydrazide]
0.05 (≈ 0.18 µM) | Cn1cc(C(=O)NNc2ccc(Cl)cc2)ccc1=O [Example 5, N′-(4-chlorophenyl)-1-methyl-6-oxo-1,6-dihydropyridine-3-carbohydrazide]
0.1 (≈ 0.373 µM) | Cn1cc(C(=O)NNc2cccc(C#N)c2)ccc1=O [Example 6, N′-(3-cyanophenyl)-1-methyl-6-oxo-1,6-dihydropyridine-3-carbohydrazide]
0.84 (≈ 3.13 µM) | Cn1cc(C(=O)NNc2ccc(C#N)cc2)ccc1=O [Example 7, N′-(4-cyanophenyl)-1-methyl-6-oxo-1,6-dihydropyridine-3-carbohydrazide]
0.24 (≈ 0.771 µM) | Cn1cc(C(=O)NNc2cccc(C(F)(F)F)c2)ccc1=O [Example 8, 1-methyl-6-oxo-N′-(3-(trifluoromethyl)phenyl)-1,6-dihydropyridine-3-carbohydrazide]
1.95 (≈ 6.26 µM) | Cn1cc(C(=O)NNc2ccc(C(F)(F)F)cc2)ccc1=O [Example 9, 1-methyl-6-oxo-N′-(4-(trifluoromethyl)phenyl)-1,6-dihydropyridine-3-carbohydrazide]
0.22 (≈ 0.788 µM) | Cn1cc(C(=O)NNc2ccc(F)c(F)c2)ccc1=O [Example 12, N′-(3,4-difluorophenyl)-1-methyl-6-oxo-1,6-dihydropyridine-3-carbohydrazide]
0.06 (≈ 0.192 µM) | Cn1cc(C(=O)NNc2ccc(Cl)c(Cl)c2)ccc1=O [Example 14, N′-(3,4-dichlorophenyl)-1-methyl-6-oxo-1,6-dihydropyridine-3-carbohydrazide]
0.12 (≈ 0.406 µM) | Cn1cc(C(=O)NNc2ccc(F)c(Cl)c2)ccc1=O [Example 17, N′-(3-chloro-4-fluorophenyl)-1-methyl-6-oxo-1,6-dihydropyridine-3-carbohydrazide]
0.88 (≈ 3.14 µM) | Cn1cc(C(=O)NNc2ccc(F)nc2F)ccc1=O [Example 19, N′-(2,6-difluoropyridine-3-yl)-1-methyl-6-oxo-1,6-dihydropyridine-3-carbohydrazide]
0.22 (≈ 0.796 µM) | Cc1nc(F)ccc1NNC(=O)c1ccc(=O)n(C)c1 [Example 20, N′-(6-fluoro-2-methylpyridine-3-yl)-1-methyl-6-oxo-1,6-dihydropyridine-3-carbohydrazide]
0.23 (≈ 0.778 µM) | Cn1cc(C(=O)NNc2cccc(F)c2)c(Cl)cc1=O [Example 22, 4-chloro-N′-(3-fluorophenyl)-1-methyl-6-oxo-1,6-dihydropyridine-3-carbohydrazide]
0.46 (≈ 1.56 µM) | Cn1cc(C(=O)NNc2ccc(F)cc2)c(Cl)cc1=O [Example 23, 4-chloro-N′-(4-fluorophenyl)-1-methyl-6-oxo-1,6-dihydropyridine-3-carbohydrazide]
0.23 (≈ 0.778 µM) | Cn1cc(C(=O)NNc2ccc(F)cc2)cc(Cl)c1=O [Example 25, 5-chloro-N′-(4-fluorophenyl)-1-methyl-6-oxo-1,6-dihydropyridine-3-carbohydrazide]
0.49 (≈ 1.57 µM) | Cn1cc(C(=O)NNc2ccc(Cl)cc2)cc(Cl)c1=O [Example 27, 5-chloro-N′-(4-chlorophenyl)-1-methyl-6-oxo-1,6-dihydropyridine-3-carbohydrazide]
0.12 (≈ 0.396 µM) | Cn1cc(C(=O)NNc2cccc(C#N)c2)cc(Cl)c1=O [Example 28, 5-chloro-N′-(3-cyanophenyl)-1-methyl-6-oxo-1,6-dihydropyridine-3-carbohydrazide]
0.47 (≈ 1.55 µM) | Cn1cc(C(=O)NNc2ccc(C#N)cc2)cc(Cl)c1=O [Example 29, 5-chloro-N′-(4-cyanophenyl)-1-methyl-6-oxo-1,6-dihydropyridine-3-carbohydrazide]
0.31 (≈ 0.988 µM) | Cn1cc(C(=O)NNc2ccc(F)cc2F)cc(Cl)c1=O [Example 30, 5-chloro-N′-(2,4-difluorophenyl)-1-methyl-6-oxo-1,6-dihydropyridine-3-carbohydrazide]

MIC80 [mg/L] | Compound
0.06 (≈ 0.191 µM) | Cn1cc(C(=O)NNc2ccc(F)c(F)c2)cc(Cl)c1=O [Example 31, 5-chloro-N′-(3,4-difluorophenyl)-1-methyl-6-oxo-1,6-dihydropyridine-3-carbohydrazide]
0.03 (≈ 0.0956 µM) | Cn1cc(C(=O)NNc2cc(F)cc(F)c2)cc(Cl)c1=O [Example 32, 5-chloro-N′-(3,5-difluorophenyl)-1-methyl-6-oxo-1,6-dihydropyridine-3-carbohydrazide]
0.16 (≈ 0.381 µM) | Cn1cc(C(=O)NNc2cccc(F)c2)c(Nc2ccc(C(F)(F)F)cc2)cc1=O [Example 35, N′-(3-fluorophenyl)-1-methyl-6-oxo-4-((4-(trifluoromethyl)phenyl)amino)-1,6-dihydropyridine-3-carbohydrazide]
1.31 (≈ 3.12 µM) | Cn1cc(C(=O)NNc2ccc(F)cc2)c(Nc2ccc(C(F)(F)F)cc2)cc1=O [Example 36, N′-(4-fluorophenyl)-1-methyl-6-oxo-4-((4-(trifluoromethyl)phenyl)amino)-1,6-dihydropyridine-3-carbohydrazide]
0.07 (≈ 0.207 µM) | Cn1cc(C(=O)NNc2cccc(F)c2)cc(-c2ccccn2)c1=O [Example 41, N′-(3-fluorophenyl)-1-methyl-6-oxo-5-(pyridine-2-yl)-1,6-dihydropyridine-3-carbohydrazide]
0.07 (≈ 0.205 µM) | O=C(NNc1cccc(F)c1)c1ccc(=O)n(-c2ccccc2F)c1 [Example 42, 1-(2-fluorophenyl)-N′-(3-fluorophenyl)-6-oxo-1,6-dihydropyridine-3-carbohydrazide]
0.13 (≈ 0.381 µM) | O=C(NNc1cccc(F)c1)c1ccc(=O)n(-c2cccc(F)c2)c1 [Example 43, N′,1-Bis(3-fluorophenyl)-6-oxo-1,6-dihydropyridine-3-carbohydrazide]
0.13 (≈ 0.381 µM) | O=C(NNc1cccc(F)c1)c1ccc(=O)n(-c2ccc(F)cc2)c1 [Example 44, N′-(3-fluorophenyl)-1-(4-fluorophenyl)-6-oxo-1,6-dihydropyridine-3-carbohydrazide]
0.61 (≈ 1.56 µM) | O=C(NNc1ccc(F)cc1)c1ccc(=O)n(-c2ccc(C(F)(F)F)cc2)c1 [Example 45, N′-(4-fluorophenyl)-6-oxo-1-(4-(trifluoromethyl)phenyl)-1,6-dihydropyridine-3-carbohydrazide]
0.31 (≈ 0.792 µM) | O=C(NNc1ccc(F)cc1)c1ccc(=O)n(-c2cccc(C(F)(F)F)c2)c1 [Example 46, N′-(4-fluorophenyl)-6-oxo-1-(3-(trifluoromethyl)phenyl)-1,6-dihydropyridine-3-carbohydrazide]
0.56 (≈ 1.57 µM) | O=C(NNc1ccc(F)cc1)c1ccc(=O)n(-c2cccc(Cl)c2)c1 [Example 47, 1-(3-chlorophenyl)-N′-(4-fluorophenyl)-6-oxo-1,6-dihydropyridine-3-carbohydrazide]
0.08 (≈ 0.197 µM) | O=C(NNc1cccc(F)c1)c1ccc(=O)n(Cc2ccc(C(F)(F)F)nc2)c1 [Example 50, N′-(3-fluorophenyl)-6-oxo-1-((6-(trifluoromethyl)pyridine-3-yl)methyl)-1,6-dihydropyridine-3-carbohydrazide]
0.16 (≈ 0.394 µM) | O=C(NNc1ccc(F)cc1)c1ccc(=O)n(Cc2ccc(C(F)(F)F)nc2)c1 [Example 51, N′-(4-fluorophenyl)-6-oxo-1-((6-(trifluoromethyl)pyridine-3-yl)methyl)-1,6-dihydropyridine-3-carbohydrazide]
0.08 (≈ 0.189 µM) | O=C(NNc1ccc(F)c(F)c1)c1ccc(=O)n(Cc2ccc(C(F)(F)F)nc2)c1 [Example 52, N′-(3,4-difluorophenyl)-6-oxo-1-((6-(trifluoromethyl)pyridine-3-yl)methyl)-1,6-dihydropyridine-3-carbohydrazide]
0.2 (≈ 0.397 µM) | O=C(NNc1cccc(F)c1)c1ccc(=O)n(CCN2CCN(c3ccc(C(F)(F)F)cc3)CC2)c1 [Example 55, N′-(3-fluorophenyl)-6-oxo-1-(2-(4-(4-(trifluoromethyl)phenyl)piperazin-1-yl)ethyl)-1,6-dihydropyridine-3-carbohydrazide]
0.79 (≈ 1.57 µM) | O=C(NNc1ccc(F)cc1)c1ccc(=O)n(CCN2CCN(c3ccc(C(F)(F)F)cc3)CC2)c1 [Example 56, N′-(4-fluorophenyl)-6-oxo-1-(2-(4-(4-(trifluoromethyl)phenyl)piperazin-1-yl)ethyl)-1,6-dihydropyridine-3-carbohydrazide]
0.08 (≈ 0.207 µM) | O=C(NNc1cccc(F)c1)c1ccc(=O)n(CCc2cccc(Cl)c2)c1 [Example 57, 1-(3-chlorophenethyl)-N′-(3-fluorophenyl)-6-oxo-1,6-dihydropyridine-3-carbohydrazide]
0.08 (≈ 0.207 µM) | O=C(NNc1cccc(F)c1)c1ccc(=O)n(CCc2ccc(Cl)cc2)c1 [Example 58, 1-(4-chlorophenethyl)-N′-(3-fluorophenyl)-6-oxo-1,6-dihydropyridine-3-carbohydrazide]

Source: US9617216B2, “Antifungal oxodihydropyridinecarbohydrazide derivative” (Daewoong Pharmaceutical Co., Ltd., priority 2013, dated 2017)
